In PubChem BioAssay (NCI):
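Each compound was tested at five concentrations against cells in 96-well plates for 48 hours. GI50 marks 50% less growth. TGI: total growth inhibition.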

Tests used:
Assay in all cases: NCI-60 cell line screen, 48 h
CCRF-CEM leukemia = tested on: CCRF-CEM leukemia
DU-145 prostate = tested on: DU-145 prostate
HCC-2998 colon = tested on: HCC-2998 colon
NCI-H226 lung = tested on: NCI-H226 lung
T-47D breast = tested on: T-47D breast
COLO 205 colon = tested on: COLO 205 colon
SK-MEL-5 melanoma = tested on: SK-MEL-5 melanoma
IGROV1 ovarian = tested on: IGROV1 ovarian
KM20L2 colon = tested on: KM20L2 colon
OVCAR-8 ovarian = tested on: OVCAR-8 ovarian
HT29 colon = tested on: HT29 colon

Row | SMILES | TGI (CCRF-CEM leukemia) [µM] | TGI (DU-145 prostate) [µM] | TGI (HCC-2998 colon) [µM] | TGI (NCI-H226 lung) [µM] | TGI (T-47D breast) [µM] | TGI (COLO 205 colon) [µM] | TGI (SK-MEL-5 melanoma) [µM] | TGI (IGROV1 ovarian) [µM] | TGI (KM20L2 colon) [µM] | TGI (OVCAR-8 ovarian) [µM] | TGI (HT29 colon) [µM] | GI50 (KM20L2 colon) [µM]
1 | C[N+]1(C)C/C(=C\C=C\c2ccccc2)C(=O)/C(=C/C=C/c2ccccc2)C1 | 13.7 | 37.2 | 34.2 | > 72.1 | 47.4 | 11.8 | 25.2 | 35.8 | 33.1 | 53.1 | 26.6 | 
2 | O=[N+]([O-])c1cc(C(F)(F)F)cc2c1SC1=Nc3ccccc3CN12 | > 100 |  | > 100 | > 100 |  | > 100 | > 100 | > 100 | > 100 | > 100 | > 100 | 
3 | Nc1n[nH]c(N)n1 | > 9030 | > 10000 | > 10000 | > 10000 | > 10000 | 9990 | > 10000 | > 7740 | > 10000 | > 10000 | > 10000 | 
4 | O=C(N/N=C/c1cc(Cl)cc(Cl)c1[O-])c1ccccc1O.O=C(N/N=C/c1cc(Cl)cc(Cl)c1[O-])c1ccccc1O.[Fe+2] | > 100 |  | 26.2 | 33.5 |  |  |  | 56.5 | 27.9 | 34.3 |  | 14.1
5 | NC1C2C=CC(C2)C1C(=O)O (stereo not drawn) | > 100 | > 100 |  | > 100 | > 100 | > 100 | > 100 | > 100 |  | > 100 | > 100 | 
6 | CCC/C=C/C=C\C(=O)O[C@@H]1[C@@H](C)[C@]2(O)[C@@H]3C=C(C)C(=O)[C@H]3CC(COC(C)=O)=C[C@H]2[C@@H]2C(C)(C)[C@]12OC(C)=O | 36.2 |  | 58.3 | > 97.6 |  | 22.5 | 108 | 109 | 88.8 | 116 | 84.6 | 
7 | O=C(N/N=C/c1cc(Cl)cc(Cl)c1[OH2+])c1ccncc1.O=S(=O)([O-])[O-].[Fe+2] | 15.8 |  | > 100 | 41.9 |  | 40.5 | > 100 | 15.4 | 36.3 | > 100 | 28.6 | 
8 | NCCCC(N)(C(=O)O)C(F)F (stereo not drawn) | > 1580 |  | > 5000 | > 5000 |  | > 5000 | > 5000 | > 5000 | > 5000 | > 1090 | > 5000 | 
9 | Oc1ccccc1CNCc1ccccc1O | > 100 | > 100 | 36.7 | > 100 | > 100 | > 100 | > 100 | > 100 |  | > 100 | > 100 | 
10 | COc1cc2c(cc1OC)-c1cc3cc(OC)c(OC)cc3c(C)[n+]1CC2 (tested in a mixture with another compound) | 77 | > 100 | 62.5 | > 100 | 25.2 | > 100 | > 100 | > 100 |  | > 100 | > 100 | 
11 | CCN(CC)CCCNC(=O)c1ccccc1Nc1c(Cl)cccc1Cl | 21.3 |  | 21.3 | 28.6 |  | 28 | 10.7 | 34 | 5.58 | 31.6 | 16.5 | 
12 | O=c1[nH]c(Br)nc2n[nH]nc12 | > 100 | > 100 | > 100 | > 100 | > 100 | > 100 | > 100 | > 100 |  | > 100 | > 100 | 
